Measured values from the supplement of paper PMC10307832.

Legend:
Assay in all cases: relative viability (nuclei count vs DMSO), 5 days (fraction); higher = more cells survive
Carfilzomib + Crizotinib = compound: CC(C)C[C@H](NC(=O)[C@H](CCc1ccccc1)NC(=O)CN1CCOCC1)C(=O)N[C@@H](Cc1ccccc1)C(=O)N[C@@H](CC(C)C)C(=O)[C@@]1(C)CO1 [Carfilzomib] + C[C@@H](Oc1cc(-c2cnn(C3CCNCC3)c2)cnc1N)c1c(Cl)ccc(F)c1Cl [Crizotinib] (partner 1 µM)
How it was run: (§1)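 One day after seeding in 1536-well plates, lung cancer cell lines were dosed by pin tool. Dosing was either single-drug or a fixed anchor-drug dose plus five library-drug doses (not always all listed) in √10 steps. After 5 days, nuclei were stained in one fix-and-stain step and counted on 4× images, and relative viability is the nuclei count of treated wells over that of vehicle wells, given as the median of duplicate plates.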

Carfilzomib + Decitabine = compound: CC(C)C[C@H](NC(=O)[C@H](CCc1ccccc1)NC(=O)CN1CCOCC1)C(=O)N[C@@H](Cc1ccccc1)C(=O)N[C@@H](CC(C)C)C(=O)[C@@]1(C)CO1 [Carfilzomib] + Nc1ncn([C@H]2C[C@H](O)[C@@H](CO)O2)c(=O)n1 [Decitabine] (partner 2 µM)
How it was run: as §1

Carfilzomib + OSI-027 = compound: CC(C)C[C@H](NC(=O)[C@H](CCc1ccccc1)NC(=O)CN1CCOCC1)C(=O)N[C@@H](Cc1ccccc1)C(=O)N[C@@H](CC(C)C)C(=O)[C@@]1(C)CO1 [Carfilzomib] + COc1cccc2cc(-c3nc([C@H]4CC[C@H](C(=O)O)CC4)n4ncnc(N)c34)[nH]c12 [OSI-027] (partner 0.5 µM)
How it was run: as §1

Olaparib + Tozasertib = compound: O=C(c1cc(Cc2n[nH]c(=O)c3ccccc23)ccc1F)N1CCN(C(=O)C2CC2)CC1 [Olaparib] + Cc1cc(Nc2cc(N3CCN(C)CC3)nc(Sc3ccc(NC(=O)C4CC4)cc3)n2)n[nH]1 [Tozasertib] (partner 0.1 µM)
How it was run: as §1

Row | Cell Line | relative viability (Carfilzomib + Crizotinib; first compound 0.001 µM) | relative viability (Carfilzomib + Crizotinib; first compound 0.003162 µM) | relative viability (Carfilzomib + Crizotinib; first compound 0.01 µM) | relative viability (Carfilzomib + Crizotinib; first compound 0.03162 µM) | relative viability (Carfilzomib + Crizotinib; first compound 0.1 µM) | relative viability (Carfilzomib + Decitabine; first compound 0.001 µM) | relative viability (Carfilzomib + Decitabine; first compound 0.003162 µM) | relative viability (Carfilzomib + Decitabine; first compound 0.01 µM) | relative viability (Carfilzomib + Decitabine; first compound 0.03162 µM) | relative viability (Carfilzomib + Decitabine; first compound 0.1 µM) | relative viability (Carfilzomib + OSI-027; first compound 0.001 µM) | relative viability (Carfilzomib + OSI-027; first compound 0.003162 µM) | relative viability (Carfilzomib + OSI-027; first compound 0.01 µM) | relative viability (Carfilzomib + OSI-027; first compound 0.03162 µM) | relative viability (Carfilzomib + OSI-027; first compound 0.1 µM) | relative viability (Olaparib + Tozasertib; first compound 0.08 µM) | relative viability (Olaparib + Tozasertib; first compound 0.253 µM) | relative viability (Olaparib + Tozasertib; first compound 2.53 µM) | relative viability (Olaparib + Tozasertib; first compound 8 µM)
1 | NCI-H727 | 0.84 | 0.682 | 0.871 | 0.223 | 0.141 | 0.897 | 0.937 | 0.836 | 0.9 | 0.746 | 0.618 | 0.646 | 0.734 | 0.463 | 0.242 | 0.704 | 0.581 | 0.674 | 0.486
2 | NCI-H838 | 0.876 | 0.972 | 0.923 | 0.577 | 0.122 | 0.437 | 0.498 | 0.434 | 0.27 | 0.178 | 0.367 | 0.45 | 0.431 | 0.388 | 0.131 | 0.277 | 0.239 | 0.265 | 0.269
3 | NCI-H1355 | 1.05 | 1.05 | 1.03 | 0.695 | 0.139 | 0.379 | 0.402 | 0.353 | 0.377 | 0.157 | 0.411 | 0.495 | 0.493 | 0.311 | 0.163 | 0.697 | 0.552 | 0.562 | 0.444
4 | NCI-H1437 | 0.915 | 1.04 | 0.898 | 0.835 | 0.184 | 0.58 | 0.599 | 0.567 | 0.413 | 0.316 | 0.876 | 0.952 | 0.841 | 0.889 | 0.241 | 0.424 | 0.393 | 0.394 | 0.379
5 | NCI-H1650 | – | 0.839 | 0.642 | 0.114 | 0.139 | 0.42 | 0.522 | 0.359 | 0.148 | 0.177 | 0.656 | 0.496 | 0.162 | 0.142 | 0.198 | 0.475 | 0.391 | 0.372 | 0.361
6 | NCI-H1651 | 0.874 | 0.914 | 0.782 | 0.383 | 0.122 | 0.467 | 0.677 | 0.32 | 0.163 | 0.0885 | 0.733 | 0.743 | 0.588 | 0.127 | 0.0922 | 0.677 | 0.638 | 0.439 | 0.257
7 | NCI-H1666 | 1.07 | 1.14 | 1.08 | 0.409 | 0.211 | 0.707 | 0.782 | 0.751 | 0.704 | 0.403 | 0.807 | 0.87 | 0.955 | 0.749 | 0.383 | 0.619 | 0.733 | 0.583 | 0.515
